Test results published in US4863906A, “2'-deoxy-5-ethynyluridine-3',5'-diestens for treatment of VZV and CMV infections” (Burroughs Wellcome Co., priority 1985, dated 1989).
Where two headings read alike, the source gives them in different places.

What was measured:
[1] = test system: Human cytomegalovirus (HCMV); experiment: HCMV plaque reduction assay in MRC5 or Detroit 532 cells; assay type: cell-based; conditions: Human betaherpesvirus 5, MRC5, MRC5 or Detroit 532 cells
Procedure: (§1) Human cytomegalovirus (HCMV) was assayed in monolayers of either MRC5 cells (human embryonic lung) or Detroit 532 cells (human foreskin fibroblasts) in multiwell trays. Activity of compounds was determined in the plaque reduction assay, in which a cell monolayer was infected with a suspension of HCMV, and then overlaid with nutrient agarose in the form of a gel to ensure that there was no spread of virus throughout the culture. A range of concentrations of compound of known molarity was incorporated in the nutrient agarose overlay. Plaque numbers at each concentration were expressed as percentages of the control and a dose-response curve was drawn. From this curve the 50% inhibitory concentration (IC50) was estimated.

[2] = test system: Varicella zoster virus (VZV); experiment: VZV assay in MRC5 cells (similar to HCMV plaque reduction, without agarose overlay); assay type: cell-based
Procedure: as §1
Varicella zoster virus (VZV) was assayed in MRC5 cells by a similar method to that for HCMV with the omission of the agarose overlay.

[3] = test system: Herpes simplex type 1 (HSV1); experiment: HSV1 assay in Vero cells (similar to HCMV plaque reduction assay); assay type: cell-based; conditions: read-out: IC50 HSV1
Procedure: as §1
Herpes simplex type 1 (HSV1) was assayed in Vero cells in a similar method to that described for the HCMV assay.

[4] = Cell toxicity: cell growth inhibition assay in Vero cells (MTT uptake); assay type: cell-based; conditions: monkey, 50% inhibition of cell viability at 96 hours, read-out: CCID50 at 96 hr.
Procedure: Cell toxicity was assessed in a cell growth inhibition assay. Subconfluent cultures of Vero cells grown on 96-well microtiter dishes were exposed to different dilutions of drug, and cell viability determined daily on replicate cultures using uptake of a tetrazolium dye (MTT). The concentration required for a 50% inhibition of cell viability at 96 hours is termed CCID50.

certain DNA viruses = experiment: Antiviral activity against certain DNA viruses (general statement); conditions: DNA viruses other than vaccinia and herpes simplex
vaccinia = conditions: Walker et al. 1978; UK 1 601 020; cited from earlier work
herpes simplex viruses = conditions: Walker et al. 1978; UK 1 601 020; cited from earlier work
[5] = Human alphaherpesvirus 3, MRC5, MRC5 cells, read-out: IC50 VZV
[6] = Human alphaherpesvirus 1, Vero cells

SMILES	IC50 [1] [nM]	IC50 [2, 5] [µM]	IC50 [3, 6] [µM]	CC50 at 96 h ([4]; vero cells) [µM]	other results
C#Cc1cn([C@H]2C[C@H](O)[C@@H](COC(=O)c3ccc(OC)cc3)O2)c(=O)[nH]c1=O [H/p-Anisoyl, 5'-O-p-Anisoyl-2'-Deoxy-5-ethynyluridine]	2800 to 3700	> 20	> 20	3	
C#Cc1cn([C@H]2C[C@H](O)[C@@H](COC(=O)c3cccc(Cl)c3)O2)c(=O)[nH]c1=O [H/m-Cl Benzoyl]	460	< 0.2		19	
C#Cc1cn([C@H]2C[C@H](OC(=O)C(C)(C)C)[C@@H](COC(=O)C(C)(C)C)O2)c(=O)[nH]c1=O [Pivaloyl/Pivaloyl, 2'-Deoxy-5-ethynyl-3',5'-di-O-pivaloyl uridine]	2000	5.5	> 20	> 100	
C#Cc1cn([C@H]2C[C@H](OC(=O)c3ccc(C)cc3)[C@@H](COC(=O)c3ccc(C)cc3)O2)c(=O)[nH]c1=O [p-Toluoyl/p-Toluoyl, 2'-Deoxy-3',5'-di-O-p-toluoyl-5-ethynyluridine]		> 20	> 20	> 100	
C#Cc1cn([C@H]2C[C@H](O)[C@@H](COS(=O)(=O)c3ccc(C)cc3)O2)c(=O)[nH]c1=O [H/p-Tosyl]	5600				
C#Cc1cn([C@H]2C[C@H](OC(=O)c3ccccc3)[C@@H](COC(=O)c3ccccc3)O2)c(=O)[nH]c1=O [Benzoyl/Benzoyl, 2'-Deoxy-3',5'-di-O-benzoyl-5-ethynyluridine]	4700	> 20	> 20	> 100	
C#Cc1cn([C@H]2C[C@H](OC(=O)c3ccc(OC)cc3)[C@@H](COC(=O)c3ccc(OC)cc3)O2)c(=O)[nH]c1=O [p-Anisoyl/p-Anisoyl, 2'-Deoxy-3',5'-di-O-p-anisoyl-5-ethynyluridine]	20700	> 20	> 20	> 100	
C#Cc1cn([C@H]2C[C@H](OC(=O)c3cccc(Cl)c3)[C@@H](COC(=O)c3cccc(Cl)c3)O2)c(=O)[nH]c1=O [m-Cl Benzoyl/m-Cl Benzoyl]	2700	1.1		> 100	
C#Cc1cn([C@H]2C[C@H](O)[C@@H](COC(=O)c3ccccc3)O2)c(=O)[nH]c1=O [H/Benzoyl, 5'-O-Benzoyl-2'-deoxy-5-ethynyluridine]	300	0.7	> 20	1.3	
C#Cc1cn([C@H]2C[C@H](O)[C@@H](CO)O2)c(=O)[nH]c1=O [H/H, 2'-Deoxy-5-ethynyluridine]					IC50 ([2]; Human alphaherpesvirus 3, MRC5, read-out: IC50 VZV): 0.06 to 0.3 µM; IC50 ([3]; Human alphaherpesvirus 1, Vero): 4.5 µM; CC50 at 96 h [4]: 0.3 to 3 µM; Activity against certain DNA viruses (certain DNA viruses): very potent activity; Activity against vaccinia (vaccinia): only moderate activity; Activity against herpes simplex viruses (herpes simplex viruses): only moderate activity
C#Cc1cn([C@H]2C[C@H](OS(C)(=O)=O)[C@@H](COS(C)(=O)=O)O2)c(=O)[nH]c1=O [Methanesulphonyl/Methanesulphonyl, 2'-Deoxy-3'-5'-di-O-methanesulphonyl-5-ethynyluridine]	> 50000	16	> 20		
C#Cc1cn([C@H]2C[C@H](O)[C@@H](COC(=O)CCCCCCC)O2)c(=O)[nH]c1=O [H/Octanoyl, 2'-Deoxy-5-ethynyl-5'-O-octanoyluridine]	2200	< 0.2		1.8	
C#Cc1cn([C@H]2C[C@H](OC(C)=O)[C@@H](COC(C)=O)O2)c(=O)[nH]c1=O [Acetyl/Acetyl, 2'-Deoxy-3'-5'-di-O-acetyl-5-ethynyluridine]			> 20		
C#Cc1cn([C@H]2C[C@H](O)[C@@H](COC(=O)c3ccc(C)cc3)O2)c(=O)[nH]c1=O [H/p-Toluoyl, 2'-Deoxy-5-ethynyl-5'-O-toluoyluridine]	3400	> 20	> 20	0.8	
C#Cc1cn([C@H]2C[C@H](OC(=O)C3CC3)[C@@H](COC(=O)C3CC3)O2)c(=O)[nH]c1=O [Cyclopropanoyl/Cyclopropanoyl, 2'-Deoxy-3',5'-di-O-cyclopropanoyl-5-ethynyluridine]	2000	24	> 20	> 100	
C#Cc1cn([C@H]2C[C@H](O)[C@@H](COC(=O)C3CC3)O2)c(=O)[nH]c1=O [H/Cyclopropanoyl, 5'-O-Cyclopropanoyl-2'-deoxy-5-ethynyluridine]	900	6.5	> 20	15	
C#Cc1cn([C@H]2C[C@H](O)[C@@H](COC(=O)C(C)(C)C)O2)c(=O)[nH]c1=O [H/Pivaloyl, 2'-Deoxy-5-ethynyl-5'-O-pivaloyluridine]	400	0.6	> 20	10.2	
